Results: patent US20260191845A1, “PYRIDINE-2-THIOL 1-OXIDE DERIVATIVES AND THEIR USE FOR TREATMENT OF MAMMALIAN INFECTIONS CAUSED BY MYCOBACTERIUM OR FUNGI” (priority 2022, published 2026)
Several values for one entry are separate records, joined by “and”; a condition that tells them apart may be missing. Identical values can stand only once.

Experiments:
[1] = tested on: M. abscessus MDR clinical isolate 1; test: REMA MIC90, broad spectrum of microorganisms; type: cell-based; conditions: Mycobacteroides abscessus, M. abscessus MDR clinical isolate 1, resistant to amikacin, clarithromycin, doxycycline, bedaquiline and others, read-out: MIC to Compound 2
Procedure: (§1) To determine the in vitro activity of compounds (MIC90) against Mycobacterium abscessus ATCC 19977, the resazurin reduction microplate assays (REMA) is performed. Briefly, serial 2-fold dilutions of drug are prepared in 96-well microtiter plates (Fluoronunc, Thermo Fisher, Waltham, MA, USA) in 100 μL of Middlebrook 7H9 medium (Difco), supplemented with 10% OADC without addition of Tween 80. Then, M. abscessus log-phase cultures were diluted (OD600=0.02) and added in the 96-well microtiter plate. Growth controls containing no compound and sterile controls without inoculum are also included. Also, a compound known to be active against M. abscessus growth is included as positive control. After 1 day of incubation at 37° C., 10 μL of resazurin (0.025% w/v) is added to each well, and bacterial viability is assessed after a further 24 h of incubation using a Fluoroskan™ Microplate Fluorometer (Thermo Fisher Scientific, Waltham, MA, USA; excitation=544 nm, emission=590 nm). Bacterial viability was calculated as a percentage of resazurin turnover in the absence of compound (MIC90). […]. Results are expressed as the average of at least three independent replicates and presented on the following Table 1.
(§2) By using the same procedure, the compound according to Example B (compound 2) was tested on broad spectrum of microorganisms and the corresponding results are presented in the below Table 2.

[2] = tested on: M. abscessus MDR clinical isolate 2 (from CF patient); test: REMA MIC90, broad spectrum of microorganisms; type: cell-based; conditions: Mycobacteroides abscessus, resistant to amikacin, amoxicillin, imipenem, linezolid and others, read-out: MIC to Compound 2
Procedure: as §1, §2

[3] = tested on: M. abscessus clinical isolate n. 10; test: REMA MIC90, broad spectrum of microorganisms; type: cell-based; conditions: Mycobacteroides abscessus, M. abscessus clinical isolate n. 10, resistant to moxifloxacin, doxycycline, read-out: MIC to Compound 2
Procedure: as §1, §2

[4] = tested on: M. abscessus clinical isolate n. 6; test: REMA MIC90, broad spectrum of microorganisms; type: cell-based; conditions: Mycobacteroides abscessus, M. abscessus clinical isolate n. 6, resistant to clarithromycin, moxifloxacin, doxycycline, linezolid, read-out: MIC to Compound 2
Procedure: as §1, §2

[5] = tested on: M. abscessus clinical isolate n. 7; test: REMA MIC90, broad spectrum of microorganisms; type: cell-based; conditions: Mycobacteroides abscessus, M. abscessus clinical isolate n. 7, resistant to clarithromycin, amikacin, moxifloxacin, doxycycline, read-out: MIC to Compound 2
Procedure: as §1, §2

[6] = tested on: M. abscessus clinical isolate n. 8; test: REMA MIC90, broad spectrum of microorganisms; type: cell-based; conditions: Mycobacteroides abscessus, M. abscessus clinical isolate n. 8, resistant to moxifloxacin, doxycycline, read-out: MIC to Compound 2
Procedure: as §1, §2

[7] = tested on: M. abscessus clinical isolate n. 9; test: REMA MIC90, broad spectrum of microorganisms; type: cell-based; conditions: Mycobacteroides abscessus, M. abscessus clinical isolate n. 9, resistant to clarithromycin, moxifloxacin, doxycycline, read-out: MIC to Compound 2
Procedure: as §1, §2

[8] = tested on: M. avium clinical isolate n. 1; test: REMA MIC90, broad spectrum of microorganisms; type: cell-based; conditions: Mycobacterium avium, M. avium clinical isolate n. 1, resistant to linezolid, read-out: MIC to Compound 2
Procedure: as §1, §2

[9] = tested on: M. avium clinical isolate n. 2; test: REMA MIC90, broad spectrum of microorganisms; type: cell-based; conditions: Mycobacterium avium, M. avium clinical isolate n. 2, resistant to linezolid, read-out: MIC to Compound 2
Procedure: as §1, §2

[10] = tested on: M. avium clinical isolate n. 3; test: REMA MIC90, broad spectrum of microorganisms; type: cell-based; conditions: Mycobacterium avium, M. avium clinical isolate n. 3, resistant to linezolid, read-out: MIC to Compound 2
Procedure: as §1, §2

[11] = tested on: M. avium clinical isolate n. 4; test: REMA MIC90, broad spectrum of microorganisms; type: cell-based; conditions: Mycobacterium avium, M. avium clinical isolate n. 4, resistant to linezolid and Moxifloxacin, read-out: MIC to Compound 2
Procedure: as §1, §2

[12] = tested on: MRSA Staphylococcus aureus clinical isolate; test: REMA MIC90, broad spectrum of microorganisms; type: cell-based; conditions: read-out: MIC to Compound 2
Procedure: as §1, §2

[13] = tested on: Pseudomonas aeruginosa PAO1; test: REMA MIC90, broad spectrum of microorganisms; type: cell-based; conditions: Pseudomonas aeruginosa PAO1, in presence of efflux inhibitor, read-out: MIC to Compound 2
[14] = Subacute toxicity, 14 days per oral administration in mice; type: in vivo
Procedure: Acute and subacute toxicity of compound 2 was experimentally studied for intragastric administration in white mice. […] The compound was solubilized in saline to be administrated to animals.
Evaluation of subacute toxicity of compound 2 observation time after 14 days per oral administration.
Experimental animals: 14 C57BL/6 male white mice, 7 weeks old, weight 20-22 g.
The following experimental procedure was used: • administration route of the compound: per os; • dosage 50 mg/kg once a day for 14 days; • volume introduced into 0.3 ml/20 g (15 ml/kg); • data recorded: behavior, weight changes, rectal temperature, mortality.

[15] = Pharmacokinetic study in mice; type: in vivo, Balb/C male mice; conditions: 100 mg/kg intragastric, saline solution
Procedure: The pharmacokinetics of the compound 2 has been studied white Balb/C male mice. 27 animals with average body weight of 20 g were selected for the study. The animals were kept on standard vivarium ration with dry pelleted feed before the experiment. All the test animals had free access to water but were deprived of food for 1 hour before administration of the compound. This regimen was continued for another hour after the administration.
Compound in a dose of 100 mg/kg of body weight was administered as 0.5 mL of saline solution by intragastric intubation.
The animals were euthanized by decapitation for blood and brain sampling. Blood and brain samples (3 animals per time point) were taken at 15, 30, 60, 120, 240, 360 1440 min after administration for pharmacokinetic evaluation. Blood was collected in heparinized tubes and centrifuged at 3500 RPM. Plasma was separated from formed elements and immediately frozen at −20° C. in freezer. This storage continued before transferring of plasma for analysis. Serum from 6 untreated animals was used as control and for equipment calibration with compound. Mice brain was immediately frozen at −120° C.

[16] = tested on: Sporobolomyces salmonicolor; test: Antifungal agar well diffusion assay; conditions: 20 μL water solution in 4 mm well
Procedure: (§3) The well diffusion test was performed using Casitone agar. The inoculum used was prepared using the Candida or Aspergillus strains from a 24-hour culture on Sabouraud dextrose agar, a suspension was made in a sterile saline solution (0.85%). The turbidity of the suspension was adjusted with a spectrophotometer at 530 nm to obtain a final concentration to match that of a 0.5 McFarland standard (0.5-2.5×10^3). 20 mL of Bacto-casitone were melted, cooled to 55° C. and then inoculated with 1 mL of the organism suspension. The inoculated agar was poured into the assay plate (9 cm in diameter) and allowed to cool down on a leveled surface.

Penicillium notatum = test: Antifungal agar well diffusion assay; conditions: 20 μL water solution in 4 mm well
Procedure: as §3

Aspergillus niger = test: Antifungal agar well diffusion assay; conditions: 20 μL water solution in 4 mm well
Procedure: as §3

[17] = mice, per os, 50 mg/kg once a day for 14 days

CCOC(=O)c1ccc([S-])[n+]([O-])c1.[Na+] [Compound 2, Sodium 5-(ethoxycarbonyl)pyridine-2-thiolate 1-oxide]
MIC [1]: 500 µg/mL | MIC [2]: 500 µg/mL | MIC [3]: 500 µg/mL | MIC [4]: 500 µg/mL | MIC [5]: 500 µg/mL | MIC [6]: 500 µg/mL | MIC [7]: 500 µg/mL | MIC [8]: 500 µg/mL | MIC [9]: 500 µg/mL | MIC [10]: 500 µg/mL | MIC [11]: 500 µg/mL | MIC [12]: 8000 µg/mL | MIC [13]: 1000 µg/mL | Weight of mice, Experimental group, 28 Jan. 2021, M ± m ([14]; group mean, after 14 days of 50 mg/kg per os daily): 21.13 ± 0.308 gramm | Weight of mice, Experimental group, 13 Jan. 2021, M ± m ([14]; group mean, start of 50 mg/kg per os daily treatment): 20.71 ± 0.4 gramm | Weight of individual mice, Experimental group, 28 Jan. 2021 ([14]; individual mice, after 14 days of 50 mg/kg per os daily, 50 mg/kg): 21.1 gramm and 19.5 gramm and 20.9 gramm and 21.7 gramm and 21.5 gramm (2×) and 22.4 gramm and 20.5 gramm | Weight of individual mice, Experimental group, 13 Jan. 2021 ([14]; individual mice, start of 50 mg/kg per os daily treatment, 50 mg/kg): 20.1 gramm and 22.1 gramm and 19.2 gramm and 19.7 gramm and 20.9 gramm and 20.5 gramm and 22.8 gramm and 20.4 gramm | Subacute toxicity: general state and behavior [14, 17]: did not cause changes in the general state and behavior of the mice | Subacute toxicity: mass of mice, experimental vs control group [14, 17]: No significant differences | Subacute toxicity: animal death ([14]; mouse, in vivo, 50 mg/kg): there were no cases of animal death | Bioavailability [15]: high bioavailability | Inhibition Zone of Test Microorganism [16]: 46 mm | Inhibition Zone of Test Microorganism (Penicillium notatum): 15 mm | Inhibition Zone of Test Microorganism (Aspergillus niger): 28 mm
